The values that follow come from ChEMBL document CHEMBL1201862, “PubChem BioAssay data set” (2004).

Targets include Cytochrome P450 2D6 (Homo sapiens, UniProt P10635); Cytochrome P450 3A4 (Homo sapiens, UniProt P08684); Cytochrome P450 2C9 (Homo sapiens, UniProt P11712).
Assay [1] addresses T1, Low molecular weight phosphotyrosine protein phosphatase (Homo sapiens, UniProt P24666).
T1 sequence (P24666 whole entry): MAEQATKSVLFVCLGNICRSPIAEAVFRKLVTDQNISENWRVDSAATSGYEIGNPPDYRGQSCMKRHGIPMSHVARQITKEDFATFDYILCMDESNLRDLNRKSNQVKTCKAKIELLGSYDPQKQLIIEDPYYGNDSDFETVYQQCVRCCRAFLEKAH
The class given is functional. To be noted: read-out: IC50_Mean.

Assay [2] has as its target T1, Low molecular weight phosphotyrosine protein phosphatase. The class given is functional. To be noted: read-out: IC50_Mean. This is another data set of the same source.
Assay [3] deals with T2, Melanocortin receptor 4 (Homo sapiens, UniProt P32245). Kind of assay: MC4R antagonist potency on cAMP, dose response, cell-based, TR-FRET, biased antagonists (AID 602298).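 Also: antagonist potency against agonist-stimulated cAMP production.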 Type of assay: functional.
Assay [4] is described as follows: nonselective inhibitors of cellular cAMP signaling, dose response, counter-screen for MC4R biased antagonist project, cell-based, TR-FRET cAMP detection (AID 602305).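 Also: U2OS cells stimulated with forskolin near its EC80 as the cAMP inducer; potency is for inhibition of forskolin-stimulated cAMP signaling.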 Type of assay: functional.
Assay [5] deals with Melanin-concentrating hormone receptor 1 (Homo sapiens, UniProt Q99705). As to the kind of experiment: Late-stage fluorescence-based counterscreen for antagonists of the G-protein coupled receptor 7 (GPR7): cell-based dose response assay to identify antagonists of the melanin-concentrating hormone receptor 1 (MCHR1) Set 6. Type of assay: functional.
Assay [6] concerns the target T3, Neuropeptides B/W receptor type 1 (Homo sapiens, UniProt P48145).
T3 sequence (P48145 whole entry): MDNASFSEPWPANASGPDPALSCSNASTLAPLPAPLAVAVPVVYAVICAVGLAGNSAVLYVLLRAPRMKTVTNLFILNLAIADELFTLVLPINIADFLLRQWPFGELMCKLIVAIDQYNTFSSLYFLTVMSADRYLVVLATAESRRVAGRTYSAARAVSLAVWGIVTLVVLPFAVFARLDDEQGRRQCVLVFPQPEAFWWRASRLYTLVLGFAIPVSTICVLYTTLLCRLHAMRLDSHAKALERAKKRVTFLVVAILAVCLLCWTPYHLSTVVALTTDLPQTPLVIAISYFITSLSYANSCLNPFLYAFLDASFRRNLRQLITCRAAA
As to the kind of experiment: GPR7 antagonist potency, late-stage follow-up, cell-based, fluorescence, dose response, set 6 (AID 588583). The class given is functional.

Assay [7] concerns the target Ras and Rab interactor 1/Tyrosine-protein kinase ABL1 (Homo sapiens, UniProt P00519+Q13671). The class given is functional.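 Also: biochemical TR-FRET dose-response test measuring inhibition of binding between Rin1 and Abl proteins.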
Assay [8] deals with Aryl hydrocarbon receptor (Homo sapiens, UniProt P35869). Particulars: Potency.
A further assay addresses Aurora kinase A (Homo sapiens, UniProt O14965). Type of assay: functional.
The target of the next assay is Aurora kinase B (Homo sapiens, UniProt Q96GD4). The class given is functional.
In another assay the target is Cytochrome P450 2C19 (Homo sapiens, UniProt P33261). As to the kind of experiment: Cytochrome panel assay with activity outcomes. Panel member name: p450-cyp2c19 Compounds with AC50 equal or less than 10 uM are considered active. Type of assay: functional. To be noted: read-out: AC50.
Assay [9] is described as follows: ARNT/TACC3 interaction disruptors, potency, confirmation, biochemical, AlphaScreen, cherry-picked samples (AID 651703).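 Also: His-tagged ARNT PAS-B domain paired with GST-TACC3 E629A dimer coactivator fragment; potency of inhibitors that break up the complex and lower AlphaScreen signal.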 Type of assay: functional, Homo sapiens.
In assay [10] the target is DNA dC->dU-editing enzyme APOBEC-3G (Homo sapiens, UniProt Q9HC16). Kind of assay: APOBEC3G deaminase inhibitors, SAR follow-up, biochemical, fluorescence, single-stranded DNA substrate (AID 602136). Type of assay: functional. Particulars: read-out: IC50_Mean.
Assay [11] deals with DNA dC->dU-editing enzyme APOBEC-3A (Homo sapiens, UniProt P31941). As to the kind of experiment: SAR analysis of small molecule inhibitors of APOBEC3A DNA Deaminase via a fluorescence-based single-stranded DNA deaminase assay. Type of assay: functional. To be noted: read-out: IC50_Mean.
A short description of assay [12]: inhibitors of intracellular T. cruzi replication, confirmation, NIH3T3 host cells, beta-gal luminescence (AID 2044).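 Also: intracellular parasites grown in NIH/3T3 mouse fibroblasts as host cells; luminescent beta-galactosidase reporter signal from transgenic T. cruzi replicating inside host cells; inhibitors lower the luminescence signal.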 The class given is functional, cell-based.
Assay [13] is described as follows: cytotoxicity toward NIH3T3 fibroblasts, dose response, counter-screen, cell-based, ATP luminescence, mouse fibroblasts (AID 2010).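 Also: cells exposed to compound for about 90 hours before reading.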 The class given is functional.
For assay [14], the target named is T4, Mannose-6-phosphate isomerase (Homo sapiens, UniProt P34949).
T4 sequence (P34949 whole entry): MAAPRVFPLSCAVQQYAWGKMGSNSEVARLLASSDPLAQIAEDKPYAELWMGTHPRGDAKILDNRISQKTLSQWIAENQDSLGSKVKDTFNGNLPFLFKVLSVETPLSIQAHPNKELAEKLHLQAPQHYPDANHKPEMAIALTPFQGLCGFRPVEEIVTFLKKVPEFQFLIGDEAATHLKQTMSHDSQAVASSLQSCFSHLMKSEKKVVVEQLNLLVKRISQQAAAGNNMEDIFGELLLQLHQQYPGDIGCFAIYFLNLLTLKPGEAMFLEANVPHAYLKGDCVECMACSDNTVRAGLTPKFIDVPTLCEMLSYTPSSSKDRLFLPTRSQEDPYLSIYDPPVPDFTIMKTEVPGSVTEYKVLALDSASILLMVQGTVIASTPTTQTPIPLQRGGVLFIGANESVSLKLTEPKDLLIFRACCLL
As to the kind of experiment: human PMI inhibitors, high substrate, primary screen, biochemical, fluorescence intensity, high mannose 6-phosphate (AID 1220).

For assay [15], the target named is Heat shock protein HSP 90-alpha (Homo sapiens, UniProt P07900). Type of assay: functional, organism-based.
Assay [16] deals with Mitochondrial peptide methionine sulfoxide reductase (Bos taurus, UniProt P54149). Kind of assay: Absorbance-based biochemical high throughput dose response assay for activators of Methionine sulfoxide reductase A (MsrA). The class given is functional.
The target in assay [17] is T2, Melanocortin receptor 4. The class given is functional, cell-based.
The target in assay [18] is Proto-oncogene tyrosine-protein kinase receptor Ret (Homo sapiens, UniProt P07949). The class given is functional.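 Also: measured within a kinome-wide profiling panel, RET as the panel member.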

Calls of active or inactive are those of the source.

T2 sequence (P32245 whole entry): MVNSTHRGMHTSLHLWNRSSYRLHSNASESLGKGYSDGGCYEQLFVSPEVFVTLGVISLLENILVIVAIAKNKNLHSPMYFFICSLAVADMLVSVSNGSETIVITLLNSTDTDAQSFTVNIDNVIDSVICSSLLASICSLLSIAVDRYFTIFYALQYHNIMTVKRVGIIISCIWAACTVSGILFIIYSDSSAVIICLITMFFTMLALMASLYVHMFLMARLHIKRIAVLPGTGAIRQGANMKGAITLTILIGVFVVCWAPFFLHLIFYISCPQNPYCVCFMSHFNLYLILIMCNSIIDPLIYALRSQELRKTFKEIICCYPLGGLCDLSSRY
Chain of Melanin-concentrating hormone receptor 1 (Q99705 whole entry): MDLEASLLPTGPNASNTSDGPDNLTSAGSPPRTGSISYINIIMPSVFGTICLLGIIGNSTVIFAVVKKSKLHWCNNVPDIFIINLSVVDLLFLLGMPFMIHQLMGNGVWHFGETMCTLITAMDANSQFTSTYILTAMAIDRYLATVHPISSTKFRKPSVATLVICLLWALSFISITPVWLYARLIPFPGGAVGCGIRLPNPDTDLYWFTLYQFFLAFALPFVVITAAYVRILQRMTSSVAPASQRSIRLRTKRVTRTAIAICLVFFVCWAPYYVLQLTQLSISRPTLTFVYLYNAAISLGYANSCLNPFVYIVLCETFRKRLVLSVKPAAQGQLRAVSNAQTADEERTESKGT
Chain of DNA dC->dU-editing enzyme APOBEC-3G (Q9HC16 whole entry): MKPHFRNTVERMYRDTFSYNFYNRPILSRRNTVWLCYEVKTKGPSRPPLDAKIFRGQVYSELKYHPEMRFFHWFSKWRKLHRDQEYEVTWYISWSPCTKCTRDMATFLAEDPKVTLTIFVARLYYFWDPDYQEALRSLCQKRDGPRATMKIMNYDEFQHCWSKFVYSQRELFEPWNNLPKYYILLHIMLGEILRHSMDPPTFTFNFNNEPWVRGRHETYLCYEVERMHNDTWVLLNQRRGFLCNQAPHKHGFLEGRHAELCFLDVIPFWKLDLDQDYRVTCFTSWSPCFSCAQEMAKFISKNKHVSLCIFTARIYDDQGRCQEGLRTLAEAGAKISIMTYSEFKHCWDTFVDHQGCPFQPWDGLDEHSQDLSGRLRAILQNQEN
Chain of Ras and Rab interactor 1/Tyrosine-protein kinase ABL1 (P00519 whole entry): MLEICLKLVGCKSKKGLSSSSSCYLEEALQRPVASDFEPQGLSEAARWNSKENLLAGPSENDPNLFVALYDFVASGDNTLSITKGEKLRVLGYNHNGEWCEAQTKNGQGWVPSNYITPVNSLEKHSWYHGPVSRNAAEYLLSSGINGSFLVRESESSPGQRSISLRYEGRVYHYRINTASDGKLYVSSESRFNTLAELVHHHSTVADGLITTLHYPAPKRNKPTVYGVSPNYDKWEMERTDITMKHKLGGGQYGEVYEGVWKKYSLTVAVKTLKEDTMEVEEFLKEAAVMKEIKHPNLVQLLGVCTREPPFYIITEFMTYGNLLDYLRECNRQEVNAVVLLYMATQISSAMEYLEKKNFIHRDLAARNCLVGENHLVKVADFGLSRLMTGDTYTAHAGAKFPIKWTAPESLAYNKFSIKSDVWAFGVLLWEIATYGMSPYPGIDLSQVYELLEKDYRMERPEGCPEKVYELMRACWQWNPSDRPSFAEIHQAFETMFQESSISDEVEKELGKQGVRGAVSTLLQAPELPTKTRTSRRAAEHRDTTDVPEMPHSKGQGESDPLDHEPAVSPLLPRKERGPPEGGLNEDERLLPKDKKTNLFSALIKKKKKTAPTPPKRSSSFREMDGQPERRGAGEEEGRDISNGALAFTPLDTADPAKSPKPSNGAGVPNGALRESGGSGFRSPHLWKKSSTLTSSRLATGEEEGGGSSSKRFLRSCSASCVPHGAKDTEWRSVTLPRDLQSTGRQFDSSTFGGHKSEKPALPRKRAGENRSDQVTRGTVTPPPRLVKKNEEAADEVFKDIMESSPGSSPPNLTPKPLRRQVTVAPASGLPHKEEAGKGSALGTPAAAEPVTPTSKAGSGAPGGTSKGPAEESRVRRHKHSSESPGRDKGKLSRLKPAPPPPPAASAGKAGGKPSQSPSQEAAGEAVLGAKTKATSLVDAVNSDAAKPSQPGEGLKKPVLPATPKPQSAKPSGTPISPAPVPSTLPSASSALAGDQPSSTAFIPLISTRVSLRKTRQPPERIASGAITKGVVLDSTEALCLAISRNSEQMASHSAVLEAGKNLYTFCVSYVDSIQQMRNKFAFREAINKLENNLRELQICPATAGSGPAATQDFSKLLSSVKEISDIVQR
Chain of Ras and Rab interactor 1/Tyrosine-protein kinase ABL1 (Q13671 whole entry): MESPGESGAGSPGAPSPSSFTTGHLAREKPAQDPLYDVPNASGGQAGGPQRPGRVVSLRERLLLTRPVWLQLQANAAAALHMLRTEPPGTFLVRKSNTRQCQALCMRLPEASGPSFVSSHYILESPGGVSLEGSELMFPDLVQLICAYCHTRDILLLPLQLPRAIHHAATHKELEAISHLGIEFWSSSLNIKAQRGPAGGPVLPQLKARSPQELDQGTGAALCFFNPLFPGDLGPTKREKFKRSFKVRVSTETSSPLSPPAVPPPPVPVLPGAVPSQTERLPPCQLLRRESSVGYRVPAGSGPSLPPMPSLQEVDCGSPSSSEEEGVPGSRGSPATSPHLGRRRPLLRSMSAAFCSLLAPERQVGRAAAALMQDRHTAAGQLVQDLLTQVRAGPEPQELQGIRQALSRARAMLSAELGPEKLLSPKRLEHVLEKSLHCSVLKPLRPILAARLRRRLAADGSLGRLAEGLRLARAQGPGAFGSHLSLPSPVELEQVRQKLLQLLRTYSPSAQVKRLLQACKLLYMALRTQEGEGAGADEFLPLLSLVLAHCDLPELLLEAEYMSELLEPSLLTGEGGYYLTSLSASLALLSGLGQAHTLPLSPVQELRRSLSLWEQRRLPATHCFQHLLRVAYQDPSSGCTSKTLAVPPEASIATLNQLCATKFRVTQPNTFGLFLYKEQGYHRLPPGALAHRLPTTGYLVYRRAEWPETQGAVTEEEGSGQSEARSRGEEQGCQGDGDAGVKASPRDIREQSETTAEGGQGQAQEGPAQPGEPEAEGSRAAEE
Chain of Cytochrome P450 2C9 (P11712 whole entry): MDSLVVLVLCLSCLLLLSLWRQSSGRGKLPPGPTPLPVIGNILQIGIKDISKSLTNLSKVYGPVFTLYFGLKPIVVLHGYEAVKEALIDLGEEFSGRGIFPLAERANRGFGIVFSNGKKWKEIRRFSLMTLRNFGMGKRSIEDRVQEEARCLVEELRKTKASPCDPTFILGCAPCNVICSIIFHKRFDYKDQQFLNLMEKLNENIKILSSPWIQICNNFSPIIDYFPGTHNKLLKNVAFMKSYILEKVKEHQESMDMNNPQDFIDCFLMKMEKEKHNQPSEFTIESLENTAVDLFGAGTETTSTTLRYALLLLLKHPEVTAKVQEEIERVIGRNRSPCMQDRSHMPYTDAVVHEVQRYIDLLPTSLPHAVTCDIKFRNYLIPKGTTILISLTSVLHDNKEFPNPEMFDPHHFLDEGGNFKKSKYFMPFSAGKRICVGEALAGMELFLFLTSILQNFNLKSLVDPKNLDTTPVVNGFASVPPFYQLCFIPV
Chain of Cytochrome P450 2D6 (P10635 whole entry): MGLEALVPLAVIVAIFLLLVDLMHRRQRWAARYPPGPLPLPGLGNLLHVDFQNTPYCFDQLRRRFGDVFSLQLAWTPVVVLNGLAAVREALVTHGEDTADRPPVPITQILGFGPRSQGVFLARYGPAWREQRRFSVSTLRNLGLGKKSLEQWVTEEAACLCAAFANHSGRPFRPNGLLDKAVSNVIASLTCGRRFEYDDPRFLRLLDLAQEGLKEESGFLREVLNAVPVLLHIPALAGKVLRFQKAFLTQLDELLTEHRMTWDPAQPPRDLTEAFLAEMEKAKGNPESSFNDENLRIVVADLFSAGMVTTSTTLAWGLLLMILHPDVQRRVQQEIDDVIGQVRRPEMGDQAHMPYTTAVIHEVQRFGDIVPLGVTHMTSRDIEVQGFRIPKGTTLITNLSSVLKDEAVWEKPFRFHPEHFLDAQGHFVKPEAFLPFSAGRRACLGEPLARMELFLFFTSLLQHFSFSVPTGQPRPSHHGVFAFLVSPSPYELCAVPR
Chain of Cytochrome P450 3A4 (P08684 whole entry): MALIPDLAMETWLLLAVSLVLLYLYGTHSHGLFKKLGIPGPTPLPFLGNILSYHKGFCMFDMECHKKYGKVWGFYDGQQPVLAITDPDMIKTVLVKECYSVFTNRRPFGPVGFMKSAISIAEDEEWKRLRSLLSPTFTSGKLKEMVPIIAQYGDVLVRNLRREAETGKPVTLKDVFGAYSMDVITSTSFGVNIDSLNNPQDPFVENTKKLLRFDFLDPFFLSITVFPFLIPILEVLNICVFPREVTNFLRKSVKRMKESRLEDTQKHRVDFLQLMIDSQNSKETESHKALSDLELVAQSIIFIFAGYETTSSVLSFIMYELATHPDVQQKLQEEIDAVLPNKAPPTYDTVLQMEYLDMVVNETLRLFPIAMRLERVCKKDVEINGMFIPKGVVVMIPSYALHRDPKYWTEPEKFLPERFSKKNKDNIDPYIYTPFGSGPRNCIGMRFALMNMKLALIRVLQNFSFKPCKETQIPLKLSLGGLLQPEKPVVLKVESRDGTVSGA
Chain of Aurora kinase B (Q96GD4 whole entry): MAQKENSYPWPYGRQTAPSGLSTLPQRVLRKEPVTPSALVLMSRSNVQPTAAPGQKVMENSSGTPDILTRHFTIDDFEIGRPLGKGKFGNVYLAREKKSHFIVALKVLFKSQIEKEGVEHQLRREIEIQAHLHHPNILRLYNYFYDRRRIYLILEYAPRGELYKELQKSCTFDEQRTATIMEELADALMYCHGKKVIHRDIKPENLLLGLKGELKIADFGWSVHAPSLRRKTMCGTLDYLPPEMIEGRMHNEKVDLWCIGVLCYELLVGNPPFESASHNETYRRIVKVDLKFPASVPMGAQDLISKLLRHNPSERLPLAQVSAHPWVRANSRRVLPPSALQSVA

With `c1ccc(-c2nc(NCc3cccnc3)c3ccccc3n2)cc1`, the values for the IC50 in assay [1] and in assay [2] were 25.1 µM (inactive) and 8.37 µM (active), respectively. The half-maximal activity concentration (AC50) was 17.8 µM (inconclusive) at Cytochrome P450 2D6 and 1 µM (inconclusive) on Cytochrome P450 3A4.

In the case of `O=C(COC(=O)CNS(=O)(=O)c1cccc(Br)c1)Nc1ccccc1Sc1ccccc1`, the IC50 is 8.42 µM (active) at Melanocortin receptor 4 [3] and > 64.6 µM (inactive) in [4].

As to `Cc1cnn(Cc2cccc3ccccc23)c(=O)c1C(C#N)c1ccccc1` (stereo not drawn), the IC50 in assay [5] and in assay [6] was 6.59 µM (active) in each case.

`CCC(c1nc2ccccc2c(=O)n1CCCn1ccnc1)N1C(=O)c2ccccc2C1=O` (stereo not drawn): the IC50 in [7] is 35.2 µM (inactive).

On to `CC(C)CN(C(=O)COC(=O)c1cnc(Cl)c(Cl)c1)c1c(N)n(Cc2ccccc2)c(=O)[nH]c1=O`, for which the values for the IC50 (on Melanocortin receptor 4 [3]; in [4]) were 11.1 µM (inactive) and > 64.6 µM (inactive), respectively.

With `CCSC(=O)N(CC)C1CCCCC1` [CYCLOATE], the AC50 in assay [8] was 0.794 µM (inconclusive).

Consider `Nc1ccc(S(=O)(=O)O)c2cccc(O)c12`, for which the values for the Ki on Aurora kinase A and at Aurora kinase B were 0.0794 µM (active) and 0.251 µM (active), respectively.

In the case of `CC(C)c1ccc(O)c(NC(=O)c2nc[nH]n2)c1`, the AC50 on Cytochrome P450 2C19 was 25.1 µM (inconclusive); in assay [9], 118 µM (active); at Cytochrome P450 2C9, 20 µM (inconclusive).

Consider `Cn1cccc1/C=C(/C#N)C(=O)Nc1cc(Cl)ccc1N1CCOCC1`, for which the IC50 in [10] and in assay [11] was > 99 µM (inactive) throughout.

For the compound `CCOc1ccc(Oc2c(Cl)cnn(Cc3cccc4ccccc34)c2=S)cc1`, the IC50 in [5] and in assay [6] was 1.51 µM (active) in each case.

Regarding `O=[N+]([O-])c1ccc(/C=N/c2cccc3ccccc23)s1`, the EC50 is 2.73 µM (active) in assay [12], > 60 µM (not active) in [13] and > 104 µM (inactive) in assay [16]. Further, the IC50 in [14] is given as > 50 µM (not active). The AC50 in assay [15] was 7.99 µM (active).

As to `Cc1cc(C)nc(Nc2nc(C(N)Cc3ccc(C(F)(F)F)cc3)cs2)n1` (stereo not drawn), the EC50 at Melanocortin receptor 4 [17] was > 89.2 µM (inactive).

On to `CC(SCC1CCC2CC1C2(C)C)C(N)=O` (stereo not drawn), for which, in [18], the Ki is 100 µM (active).
